# Measured values from ChEMBL document CHEMBL5120822, “Inhibition of the P2X7/NLRP3 Inflammasome Signaling Pathway by Deacetylgedunin from Toona sinensis” (J Nat Prod, 2022).
# Active and inactive are the calls of the source. The calls are words filed in the database; no cut-off is given here.
# What was measured:
# [1] = target: NACHT, LRR and PYD domains-containing protein 3 (Homo sapiens) (UniProt Q96P20); assay: Inhibition of NLRP3 inflammasome activation in PMA-differentiated and LPS/ATP-stimulated human THP-1 cells assessed as reduction in nuclear localization of NF-KappaB at 20 uM incubated for 1 hrs followed by LPS stimulation for 12 hrs and ATP addition for 0.5 hrs by DAPI staining based immunofluorescence analysis; format: cell-based; settings: time 13.5 hrs
# Sequence of NACHT, LRR and PYD domains-containing protein 3 (Homo sapiens) (Q96P20 whole entry, the tested form may be a part): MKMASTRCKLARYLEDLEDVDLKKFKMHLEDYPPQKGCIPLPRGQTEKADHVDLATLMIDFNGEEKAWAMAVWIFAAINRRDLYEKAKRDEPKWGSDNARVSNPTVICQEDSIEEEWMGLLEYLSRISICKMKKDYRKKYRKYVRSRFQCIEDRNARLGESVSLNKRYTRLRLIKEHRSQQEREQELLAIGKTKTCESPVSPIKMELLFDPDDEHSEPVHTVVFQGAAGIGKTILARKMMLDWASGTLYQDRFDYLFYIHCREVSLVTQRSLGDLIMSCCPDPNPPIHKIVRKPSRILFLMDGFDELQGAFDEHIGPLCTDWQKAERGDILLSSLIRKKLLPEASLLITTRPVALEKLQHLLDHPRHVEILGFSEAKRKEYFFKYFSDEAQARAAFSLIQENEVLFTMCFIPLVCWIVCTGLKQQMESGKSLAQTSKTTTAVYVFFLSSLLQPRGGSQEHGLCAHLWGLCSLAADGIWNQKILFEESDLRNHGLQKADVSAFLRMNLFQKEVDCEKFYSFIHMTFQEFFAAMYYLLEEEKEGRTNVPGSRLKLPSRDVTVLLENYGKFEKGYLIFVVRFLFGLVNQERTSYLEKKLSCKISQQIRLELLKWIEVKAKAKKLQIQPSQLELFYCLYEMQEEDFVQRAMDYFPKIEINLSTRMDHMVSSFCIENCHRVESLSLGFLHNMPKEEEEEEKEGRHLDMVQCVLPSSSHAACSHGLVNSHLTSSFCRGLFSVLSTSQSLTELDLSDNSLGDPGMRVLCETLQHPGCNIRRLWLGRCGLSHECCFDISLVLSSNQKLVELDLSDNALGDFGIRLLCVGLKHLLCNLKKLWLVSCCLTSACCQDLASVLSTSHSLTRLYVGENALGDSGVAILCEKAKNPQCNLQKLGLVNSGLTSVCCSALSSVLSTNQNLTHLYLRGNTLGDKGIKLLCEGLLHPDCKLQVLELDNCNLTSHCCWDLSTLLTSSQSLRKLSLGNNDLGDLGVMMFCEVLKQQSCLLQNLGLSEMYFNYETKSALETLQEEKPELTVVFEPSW
# [2] = tested on: THP-1; assay: Cytotoxicity against human THP-1 cells assessed as survival rate at < 40 uM by CCK8 assay; format: toxicity, cell-based; settings: thp-1, 40 µM
# [3] = target: NACHT, LRR and PYD domains-containing protein 3 (Homo sapiens) (UniProt Q96P20); assay: Inhibition of NLRP3 inflammasome activation in LPS/ATP-induced human THP-1 cells assessed as suppression of P2X7 expression at 5 to 20 uM preincubated for 1 hrs followed by LPS for 12 hrs and ATP 0.5 hrs in presence of A438079 by Western blot analysis; format: cell-based; settings: dose 5-20 µM, time 13.5 hrs
# [4] = target: NACHT, LRR and PYD domains-containing protein 3 (Homo sapiens) (UniProt Q96P20); assay: Inhibition of NLRP3 inflammasome activation in PMA-differentiated and LPS/MSU-stimulated human THP-1 cells assessed as decrease in IL-1beta expression at 20 uM incubated for 1 hrs followed by LPS stimulation for 12 hrs and MSU addition for 6 hrs by western blot analysis; format: cell-based; settings: time 19.0 hrs
# [5] = target: NACHT, LRR and PYD domains-containing protein 3 (Homo sapiens) (UniProt Q96P20); assay: (§1) Inhibition of NLRP3 inflammasome activation in PMA-differentiated and LPS/ATP-stimulated human THP-1 cells assessed as inhibition of IL-1beta secretion at 5 to 20 uM incubated for 1 hrs followed by LPS stimulation for 12 hrs and ATP addition for 0.5 hrs by ELISA; format: cell-based; settings: dose 5-20 µM, time 13.5 hrs, DDE = dose-dependent effect
# [6] = tested on: RAW264.7; assay: Antiinflammatory activity in mouse RAW264.7 assessed as inhibition of LPS-induced NO production incubated for 1 hrs followed by LPS stimulation for 18 hrs by Griess reagent based assay; format: functional, cell-based
# [7] = target: NACHT, LRR and PYD domains-containing protein 3 (Homo sapiens) (UniProt Q96P20); assay: Inhibition of NLRP3 inflammasome activation in PMA-differentiated and LPS/ATP-stimulated human THP-1 cells assessed as decrease in pro-IL-1beta expression at 5 to 20 uM incubated for 1 hrs followed by LPS stimulation for 12 hrs and ATP addition for 0.5 hrs by western blot analysis; format: cell-based; settings: dose 5-20 µM, time 13.5 hrs
# [8] = tested on: THP-1; assay: Antiinflammatory activity against PMA-differentiated and LPS/NIG stimulated human THP-1 cells assessed as increase in cell viability at 5 to 20 uM incubated for 1 hrs followed by LPS stimulation for 12 hrs and NIG addition for 2 hrs by CCK8 assay; format: functional, cell-based; settings: dose 5-20 µM, time 15.0 hrs
# [9] = target: NACHT, LRR and PYD domains-containing protein 3 (Homo sapiens) (UniProt Q96P20); assay: as §1, with “assessed as increase in potassium ion concentration” for “inhibition of IL-1beta secretion”, “EPG-2 AM staining based confocal microscopy” for “ELISA”; format: cell-based; settings: dose 5-20 µM, time 13.5 hrs
# [10] = target: NACHT, LRR and PYD domains-containing protein 3 (Homo sapiens) (UniProt Q96P20); assay: Inhibition of NLRP3 inflammasome activation in PMA-differentiated and LPS/MSU-stimulated human THP-1 cells assessed as decrease in pro-IL-1beta expression at 20 uM incubated for 1 hrs followed by LPS stimulation for 12 hrs and MSU addition for 6 hrs by western blot analysis; format: cell-based; settings: time 19.0 hrs
# [11] = target: NACHT, LRR and PYD domains-containing protein 3 (Homo sapiens) (UniProt Q96P20); assay: as §1, with “assessed as increase in potassium ion concentration” for “inhibition of IL-1beta secretion”, “EPG-2 AM staining based flow cytometry” for “ELISA”; format: cell-based; settings: dose 5-20 µM, time 13.5 hrs
# [12] = target: NACHT, LRR and PYD domains-containing protein 3 (Homo sapiens) (UniProt Q96P20); assay: Inhibition of NLRP3 inflammasome activation in PMA-differentiated and LPS/ATP-stimulated human THP-1 cells assessed as reduction in total NF-KappaB P65 nuclear expression at 5 to 20 uM incubated for 1 hrs followed by LPS stimulation for 12 hrs and ATP addition for 0.5 hrs by Western blot analysis; format: cell-based; settings: dose 5-20 µM, time 13.5 hrs
# [13] = target: NACHT, LRR and PYD domains-containing protein 3 (Homo sapiens) (UniProt Q96P20); assay: Inhibition of NLRP3 inflammasome activation in PMA-differentiated and LPS/MSU-stimulated human THP-1 cells assessed as inhibition of IL-1beta secretion at 20 uM incubated for 1 hrs followed by LPS stimulation for 12 hrs and MSU addition for 6 hrs by ELISA; format: cell-based; settings: time 19.0 hrs
# [14] = tested on: THP-1; assay: Cytotoxicity against human THP-1 cells derived macrophage assessed as reduction in cell viability upto 40 uM incubated for 24 hrs by CCK-8 assay; format: toxicity, cell-based; settings: thp-1, 24 h
# [15] = target: NACHT, LRR and PYD domains-containing protein 3 (Homo sapiens) (UniProt Q96P20); assay: Inhibition of NLRP3 inflammasome activation in PMA-differentiated and LPS/NIG-stimulated human THP-1 cells assessed as decrease in pro-caspase-1 expression at 20 uM incubated for 1 hrs followed by LPS stimulation for 12 hrs and NIG addition for 2 hrs by western blot analysis; format: cell-based; settings: time 15.0 hrs
# [16] = target: NACHT, LRR and PYD domains-containing protein 3 (Homo sapiens) (UniProt Q96P20); assay: Inhibition of NLRP3 inflammasome activation in PMA-differentiated and LPS/NIG-stimulated human THP-1 cells assessed as inhibition of IL-1beta secretion at 20 uM incubated for 1 hrs followed by LPS stimulation for 12 hrs and NIG addition for 2 hrs by ELISA; format: cell-based; settings: time 15.0 hrs
# [17] = target: NACHT, LRR and PYD domains-containing protein 3 (Homo sapiens) (UniProt Q96P20); assay: Inhibition of NLRP3 inflammasome activation in PMA-differentiated and LPS/MSU-stimulated human THP-1 cells assessed as decrease in caspase-1 expression at 20 uM incubated for 1 hrs followed by LPS stimulation for 12 hrs and MSU addition for 6 hrs by western blot analysis; format: cell-based; settings: time 19.0 hrs
# [18] = target: NACHT, LRR and PYD domains-containing protein 3 (Homo sapiens) (UniProt Q96P20); assay: Inhibition of NLRP3 inflammasome activation in PMA-differentiated and LPS/ATP-stimulated human THP-1 cells assessed as assessed as increase in intracellular chloride concentration at 20 uM incubated for 1 hrs followed by LPS stimulation for 12 hrs and ATP addition for 0.5 hrs by MQAE staining based flow cytometry; format: cell-based; settings: time 13.5 hrs
# [19] = target: NACHT, LRR and PYD domains-containing protein 3 (Homo sapiens) (UniProt Q96P20); assay: Inhibition of NLRP3 inflammasome activation in PMA-differentiated and LPS/ATP-stimulated human THP-1 cells assessed as decrease in IL-1beta expression at 5 to 20 uM incubated for 1 hrs followed by LPS stimulation for 12 hrs and ATP addition for 0.5 hrs by western blot analysis; format: cell-based; settings: dose 5-20 µM, time 13.5 hrs
compound,measurement,setting,value
CC1(C)C(=O)C=C[C@]2(C)[C@H]3CC[C@@]4(C)[C@H](c5ccoc5)OC(=O)[C@H]5O[C@]54[C@]3(C)[C@H](O)C[C@@H]12 [DEACETYLGEDUNIN],inhibition,[1],Active
same,Activity,[2],Non-Toxic
same,inhibition,[3],Active
same,inhibition,[4],Active
same,inhibition,[5],Dde
same,IC50,[6],9.19 µM
same,inhibition,[7],Active
same,Activity,[8],Active
same,inhibition,[9],Active
same,inhibition,[10],Active
same,inhibition,[11],Active
same,inhibition,[12],Active
same,inhibition,[13],Active
same,Activity,[14],Non-Toxic
same,inhibition,[15],Active
same,inhibition,[16],Active
same,inhibition,[17],Active
same,inhibition,[18],Active
same,inhibition,[19],Active
